Here are results for 16 compounds from PubChem BioAssay AID686974 (The Scripps Research Institute Molecular Screening Center, 2013).

For test [1], the target named is RAC-alpha serine/threonine-protein kinase (Homo sapiens) (UniProt P31749). Nature of the test: HSP90 client depletion in MCF7 cells – cell-based, Western blot, mechanism study, late-stage follow-up (AID 686974). The following applies: Her2/AKT client degradation, 24 h, AKT, active compounds read high. A general note: Immunoblotting shows a protein as a band on a membrane.
Sequence of RAC-alpha serine/threonine-protein kinase (Homo sapiens) (P31749 whole entry, looked up): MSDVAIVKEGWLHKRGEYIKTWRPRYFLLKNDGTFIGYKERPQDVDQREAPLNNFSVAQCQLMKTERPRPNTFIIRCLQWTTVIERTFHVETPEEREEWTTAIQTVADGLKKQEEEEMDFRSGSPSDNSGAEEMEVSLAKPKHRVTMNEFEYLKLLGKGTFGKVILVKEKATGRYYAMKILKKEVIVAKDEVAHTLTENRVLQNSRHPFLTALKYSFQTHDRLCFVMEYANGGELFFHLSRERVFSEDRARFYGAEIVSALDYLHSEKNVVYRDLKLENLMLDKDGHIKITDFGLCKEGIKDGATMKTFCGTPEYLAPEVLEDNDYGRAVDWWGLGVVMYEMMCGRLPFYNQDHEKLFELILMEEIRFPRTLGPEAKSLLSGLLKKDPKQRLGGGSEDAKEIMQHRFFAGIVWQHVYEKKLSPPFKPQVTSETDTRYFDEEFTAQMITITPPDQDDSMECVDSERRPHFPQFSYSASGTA

The target in test [2] is Receptor tyrosine-protein kinase erbB-2 (Homo sapiens) (UniProt P04626). The description is as above. The following applies: Her2/AKT client degradation, 24 h, active compounds read high.
Sequence of Receptor tyrosine-protein kinase erbB-2 (Homo sapiens) (P04626 whole entry, looked up): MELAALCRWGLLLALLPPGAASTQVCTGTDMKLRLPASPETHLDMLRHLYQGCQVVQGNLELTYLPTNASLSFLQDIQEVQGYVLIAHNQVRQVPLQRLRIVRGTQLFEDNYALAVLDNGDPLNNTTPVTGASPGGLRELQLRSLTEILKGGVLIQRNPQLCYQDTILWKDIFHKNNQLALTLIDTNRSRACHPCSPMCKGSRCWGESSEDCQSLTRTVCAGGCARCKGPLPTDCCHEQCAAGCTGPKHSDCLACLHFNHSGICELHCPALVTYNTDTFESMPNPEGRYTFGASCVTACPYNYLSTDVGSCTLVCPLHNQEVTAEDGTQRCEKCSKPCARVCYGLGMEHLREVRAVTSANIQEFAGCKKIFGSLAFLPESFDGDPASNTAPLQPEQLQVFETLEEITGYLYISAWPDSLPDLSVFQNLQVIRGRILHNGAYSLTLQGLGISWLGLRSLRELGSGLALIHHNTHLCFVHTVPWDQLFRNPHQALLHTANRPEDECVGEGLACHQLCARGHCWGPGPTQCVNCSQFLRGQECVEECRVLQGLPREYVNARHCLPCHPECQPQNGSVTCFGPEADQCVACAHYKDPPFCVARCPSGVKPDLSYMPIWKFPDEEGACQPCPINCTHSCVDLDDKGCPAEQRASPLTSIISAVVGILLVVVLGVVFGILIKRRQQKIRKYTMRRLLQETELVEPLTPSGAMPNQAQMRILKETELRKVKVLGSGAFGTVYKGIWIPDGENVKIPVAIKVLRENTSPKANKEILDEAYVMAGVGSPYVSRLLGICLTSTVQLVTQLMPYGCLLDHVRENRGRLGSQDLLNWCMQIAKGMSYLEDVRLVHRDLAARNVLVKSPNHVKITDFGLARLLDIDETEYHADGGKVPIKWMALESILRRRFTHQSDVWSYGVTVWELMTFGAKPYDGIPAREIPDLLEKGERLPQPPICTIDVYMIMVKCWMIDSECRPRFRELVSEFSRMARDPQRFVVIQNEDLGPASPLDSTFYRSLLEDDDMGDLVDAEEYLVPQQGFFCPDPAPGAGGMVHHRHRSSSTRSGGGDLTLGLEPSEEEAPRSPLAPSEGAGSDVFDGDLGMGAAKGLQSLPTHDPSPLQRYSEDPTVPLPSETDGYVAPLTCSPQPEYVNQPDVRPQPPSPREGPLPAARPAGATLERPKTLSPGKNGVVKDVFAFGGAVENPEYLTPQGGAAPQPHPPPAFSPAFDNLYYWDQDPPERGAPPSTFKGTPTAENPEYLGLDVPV

Molecules are shown by their SMILES. The source made the active and inactive calls.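 Rule for the calls: active = client protein degradation above 50% for Her2 or AKT on Western blot; inactive = client protein degradation below 10%.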

In the case of `O=C(Nc1ccccc1I)c1coc(=O)c(Br)c1`, the client protein degradation is greater than 50% in test [1] (high dose (five times the growth IC50) 147 µM, low dose (half the growth IC50) 14.7 µM) and greater than 50% in test [2] (Her2, high dose (five times the growth IC50) 147 µM, low dose (half the growth IC50) 14.7 µM).
Consider `O=C(NCc1ccco1)c1coc(=O)c(Br)c1`, for which the client protein degradation in test [1] (high dose (five times the growth IC50) 24 µM, low dose (half the growth IC50) 2.4 µM) was greater than 50%; in test [2] (Her2, high dose (five times the growth IC50) 24 µM, low dose (half the growth IC50) 2.4 µM), greater than 50%.
Turning to `CC(C)CNC(=O)c1coc(=O)c(Br)c1`, the client protein degradation in test [1] (high dose (five times the growth IC50) 37.5 µM, low dose (half the growth IC50) 3.8 µM) was < 10% (inactive); in test [2] (Her2, high dose (five times the growth IC50) 37.5 µM, low dose (half the growth IC50) 3.8 µM), greater than 50%.
On to `COc1ccc(NC(=O)c2ccc(NC(=O)c3coc(=O)c(Br)c3)cc2)cc1`, for which the client protein degradation was < 10% (inactive) in test [1] (high dose (five times the growth IC50) 60.5 µM, low dose (half the growth IC50) 6.1 µM) and < 10% (inactive) in test [2] (Her2, high dose (five times the growth IC50) 60.5 µM, low dose (half the growth IC50) 6.1 µM).
With `O=C(Nc1ccc(F)cc1)c1coc(=O)c(Br)c1`, the client protein degradation in test [1] (high dose (five times the growth IC50) 17 µM, low dose (half the growth IC50) 1.7 µM) is greater than 50%; in test [2] (Her2, high dose (five times the growth IC50) 17 µM, low dose (half the growth IC50) 1.7 µM), greater than 50%.
As to `CC(NC(=O)c1coc(=O)c(Br)c1)C1C2CCC3CC(C2)CC31` (configuration not stated), the client protein degradation was < 10% (inactive) in test [1] (high dose (five times the growth IC50) 9 µM, low dose (half the growth IC50) 0.9 µM) and greater than 50% in test [2] (Her2, high dose (five times the growth IC50) 9 µM, low dose (half the growth IC50) 0.9 µM).
Turning to `COC(=O)c1ccc2nc(NC(=O)C3CC3)sc2c1`, the client protein degradation in test [1] (high dose (five times the growth IC50) 246 µM, low dose (half the growth IC50) 24.6 µM) was < 10% (inactive); in test [2] (Her2, high dose (five times the growth IC50) 246 µM, low dose (half the growth IC50) 24.6 µM), < 10% (inactive).
For the compound `CCCCOc1cccc(NC(=O)c2coc(=O)c(Br)c2)c1`, the client protein degradation in test [1] (high dose (five times the growth IC50) 114 µM, low dose (half the growth IC50) 11.4 µM) was < 10% (inactive); in test [2] (Her2, high dose (five times the growth IC50) 114 µM, low dose (half the growth IC50) 11.4 µM), greater than 50%.
For the compound `COc1ccc(NC(=O)c2coc(=O)c(Br)c2)cc1`, the client protein degradation in test [1] (high dose (five times the growth IC50) 12 µM, low dose (half the growth IC50) 1.2 µM) was greater than 50%; in test [2] (Her2, high dose (five times the growth IC50) 12 µM, low dose (half the growth IC50) 1.2 µM), greater than 50%.
Consider `O=C(NCCc1ccc(F)cc1)c1coc(=O)c(Br)c1`, for which the client protein degradation in test [1] (high dose (five times the growth IC50) 10.5 µM, low dose (half the growth IC50) 1.1 µM) was < 10% (inactive); in test [2] (Her2, high dose (five times the growth IC50) 10.5 µM, low dose (half the growth IC50) 1.1 µM), greater than 50%.
As to `Cc1cc(NC(=O)c2coc(=O)c(Br)c2)ccc1C(C)C`, the client protein degradation is < 10% (inactive) in test [1] (high dose (five times the growth IC50) 44.5 µM, low dose (half the growth IC50) 4.5 µM) and < 10% (inactive) in test [2] (Her2, high dose (five times the growth IC50) 44.5 µM, low dose (half the growth IC50) 4.5 µM).
On to `CCCCCCCCOc1ccc(NC(=O)c2coc(=O)c(Br)c2)cc1`, for which the client protein degradation in test [1] (high dose (five times the growth IC50) 64.5 µM, low dose (half the growth IC50) 6.5 µM) was < 10% (inactive); in test [2] (Her2, high dose (five times the growth IC50) 64.5 µM, low dose (half the growth IC50) 6.5 µM), greater than 50%.
Take `CCOc1ccc(-c2nc(CN3CCCCC3CCn3cccn3)c(C)o2)cc1` (configuration not stated): the client protein degradation is < 10% (inactive) in test [1] (high dose (five times the growth IC50) 111 µM, low dose (half the growth IC50) 11.1 µM) and < 10% (inactive) in test [2] (Her2, high dose (five times the growth IC50) 111 µM, low dose (half the growth IC50) 11.1 µM).
Regarding `O=C(NCc1cccnc1)c1coc(=O)c(Br)c1`, the client protein degradation is < 10% (inactive) in test [1] (high dose (five times the growth IC50) 17.5 µM, low dose (half the growth IC50) 1.8 µM) and greater than 50% in test [2] (Her2, high dose (five times the growth IC50) 17.5 µM, low dose (half the growth IC50) 1.8 µM).
As for `CC(=O)c1ccc(NC(=O)c2coc(=O)c(Br)c2)cc1`, the client protein degradation is < 10% (inactive) in test [1] (high dose (five times the growth IC50) 53.5 µM, low dose (half the growth IC50) 5.4 µM) and greater than 50% in test [2] (Her2, high dose (five times the growth IC50) 53.5 µM, low dose (half the growth IC50) 5.4 µM).
For the compound `Cc1cccc(NC(=O)c2coc(=O)c(Br)c2)n1`, the client protein degradation was < 10% (inactive) in test [1] (high dose (five times the growth IC50) 136.5 µM, low dose (half the growth IC50) 13.7 µM) and greater than 50% in test [2] (Her2, high dose (five times the growth IC50) 136.5 µM, low dose (half the growth IC50) 13.7 µM).
